Measurements as given in US9902713B2, “Neuroprotective compounds and use thereof” (BOARD OF REGENTS OF THE UNIVERSITY OF TEXAS SYSTEM, priority 2013, dated 2018).
Entries after “also recorded” stand apart in the source; their conditions may differ.

Key:
[1] = test system: dopaminergic neurons within the substantia nigra; test: MPTP model of Parkinson's disease, TH+ neurons in SNc; format: in vivo, mice; conditions: IP, BID; for rescue of TH+ neurons: 10 mg/kg/d; for dose showing significant neuroprotective activity: 21 d after MPTP
Source text: The mouse model of neurogenesis involves protecting newborn hippocampal neurons from premature apoptotic cell death. We also sought to determine if P7C3-S243 could protect mature neurons from cell death. […] In the brain, MPTP is oxidized to 1-methyl-4-phenylpyridinium cation (MPP^+), which is selectively transported into dopaminergic neurons within the SNc.^xh Within these cells, MPP^+ acts as a mitochondrial poison, generating a pathology that resembles that of Parkinsonian patients.^xvii Under our assay conditions, treatment with drug was initiated a full 24 hours after the final dose of MPTP. This dosing regime ensures that any effect of the P7C3 class of compounds can be attributed to neuroprotective activity rather than to simply blocking the uptake or metabolism of MPTP.^xviii Mice were administered drug twice daily for 21 days, after which time they were sacrificed by transcardial perfusion. Fixed brains were sectioned through the SNc at […] intervals. Every fourth section was stained with antibodies specific to tyrosine hydroxylase (TH). The TH enzyme catalyzes the oxidation of L-tyrosine to L-DOPA, which is the first step in the biosynthesis of dopamine. Accordingly, the number of TH+ cells provides a quantification of the neuroprotective efficacy of P7C3 derivatives following MPTP exposure. Importantly, all microscopic analyses were performed blinded to treatment group.
To test efficacy of P7C3-S243 in the MPTP model of Parkinson's disease, mice were administered MPTP (30 mg/k/d) for 5 days. On the 6th day, treatment with drug was initiated at the indicated dose (IP, BID, 21 d). In FIG. 3 upper panel, bars indicate number of tyrosine hydroxylase positive cells detected by immunohistochemical staining of the substantia nigra; error bars indicate SEM; asterisks indicate p<0.01 (*), p<0.001 (**) or p<0.0001 (***) relative to the Veh+MPTP group; number of mice in each group are shown within the bars. In FIG. 3 lower panel, representative immunohistochemical pictures of TH staining in the SNc are shown for 5 mg/kg/d treatment groups; bar=[…]. […] Moreover, the enantiomeric specificity observed in the MPTP model of Parkinson's disease mirrored that observed in the mouse model of neurogenesis. […] In this side-by-side experiment, P7C3-S243 appears at least as effective as P7C3-A20, a compound that has proven efficacy in several animal models of neurodegenerative disease.
MPTP Assay. As previously reported,^5 adult male C57BI/6 mice were individually housed for one week and then injected daily for 5 days with 30 mg/kg/day (i.p.) free base MPTP (Sigma). On day 6, 24 hours after receiving the fifth and final dose of MPTP, daily treatment with compound was initiated. Mice received twice daily doses of each compound (or vehicle) for the following 21 days, after which mice were sacrificed by transcardial perfusion with 4% paraformaldehyde. Brains were dissected, fixed overnight in 4% paraformaldehyde, and cryprotected in sucrose for freezing by standard procedures. […] Images were analyzed with a Nikon Eclipse 90i motorized research microscope with Plan Apo lenses coupled with Metamorph Image Acquisition software (Nikon). TH+ neurons were counted with Image J software (NIH) in every section by 2 blinded investigators and results were averaged and multiplied by the sectioning interval to determine the total number of TH+ neurons per SNc.

[2] = test system: blast-injured mice; test: Barnes maze after blast-mediated TBI; format: in vivo; conditions: for time in escape quadrant, probe test: treatment immediately after blast-injury, 10 mg/kg/d IP, FIG. 21A
Source text: Barnes maze: The Barnes maze evaluates cognition based on time spent in the escape area. There are 20 holes around the periphery of the round tabletop, one of which contains an escape chamber (shown in red), into which the animal is motivated to seek shelter after being placed on the open tabletop. The escape area is defined as 5 cm around the hole, and time spent in the escape area during the probe test is used to measure hippocampal-dependent memory, which is dependent on visual cue around the table.
To test the neuroprotective efficacy of P7C3-A20 and P7C3-S243, we employed a model of blast-induced TBI in which the blast wave is propagated following rupture of a mylar membrane (Mohan et al., 2013). Briefly, anesthetized mice are placed in an enclosed blast chamber constructed from an air tank partitioned into two sides. A sealed mylar membrane covers a small port between the two halves of the tank. When the pressure is increased in the side without the mouse, the membrane ruptures at ≈22 kilopascal (kPa), generating a blast wave that travels through the mouse's head. The head of the mouse is untethered and located in a padded holder, while the body is shielded from the blast by a metal tube. In all cases, the left side of the head faces the blast wave. As previously reported (Mohan et al., 2013), the intensity of the blast wave in our system is 149.8±2.09 kPa, and the duration of the total pressure (Blast wave+wind gust) is ≈10-15 milliseconds.
The Barnes maze consists of a circular table with holes equally spaced around the perimeter. One of these holes contains an escape cup, such that the mouse can enter the hole and hide in the cup to avoid exposure on the table. Testing in the Barnes maze was initiated 7 days after blast-injury. To begin, mice underwent 4 days of training, during which time they were allowed to find and enter the escape hole, and rest in the protective cup. By the 4th day of training, mice typically learn how to rapidly locate the escape hole, based on visual cues permanently positioned around the table throughout training. After 4 days of training, the cup is removed and the ability of the mouse to remember where the cup was previously located is assessed in the ‘probe test.’ Memory is reflected by measuring the amount of time the mouse spends in the area around where the cup was previously located.
Blast-Mediated Traumatic Brain Injury. Mice were anesthetized with ketamine/xylazine ([…] respectively) and placed in an enclosed blast chamber (50 cm long and 33 cm wide) constructed from an air tank partitioned into two sides. One side was pressurized with a 13 cm opening between the partitions, covered with a Mylar membrane. The unpressurized partition contained a restraint 10 cm from the Mylar membrane into which the mouse was placed. The head was freely moving while a metal tube shielded the body. Compressed air was forced in to the pressurized partition until the Mylar membrane bursts at 22 kPa. The blast wave impacts the test animal inside a foam-lined restraint to reduce blunt impact trauma of the head against the metal tube. The left side of the head was closest the origin of the blast wave. Sham-injured animals were anesthetized in the same way and not subjected to the blast.
Barnes Maze. The Barnes maze test assesses spatial learning and memory. It was conducted on a gray circular surface 91 cm in diameter with 20 holes 5 cm in diameter around the perimeter raised to a height of 90 cm (Stoelting Co.). The surface was brightly lit and open in order to motivate the test animal to learn the location of a dark escape chamber recessed under one of the 20 holes. The maze was placed inside a black circular curtain with four different visual cues (with different shapes and colors) for orientation to the permanent location of the escape chamber. Four days of training comprised of four trials per day were conducted for each animal. […]

[3] = 3 and 30 mg/kg/d from 24 hours after injury
[4] = 3 and 30 mg/kg/d from 36 hours after injury
[5] = from 48 hours after injury, any dose
[6] = single enantiomers, 3 mg/kg/d IP

Question: What does the source list for `COc1cccc(NCC(F)Cn2c3ccc(Br)cc3c3cc(Br)ccc32)n1` (racemic) [P7C3-S243, N-(3-(3,6-dibromo-9H-carbazol-9-yl)-2-fluoropropyl)-6-methoxypyridin-2-amine]?
Answer: rescue of TH+ neurons ([1]; 21 d): over 85%; dose showing significant neuroprotective activity [1]: 1 mg/kg/day; learning (percent latency to escape) ([2]; 0.3 mg/kg/day from 24 hours after injury): learned significantly worse than sham-injury mice; learning (percent latency to escape) ([2]; 30 mg/kg/day from 48 hours after injury): restored normal learning; learning (percent latency to escape) ([2]; 1, 3, 10 or 30 mg/kg/day from 24 hours after injury): learned the task as well as sham-injury mice; percent quadrant time, probe test [2, 3]: preserved a normal percent quadrant time; percent target entry, probe test [2, 3]: preserved a normal percent target entry; percent quadrant time, probe test [2, 4]: only the higher dose was significantly protective; percent target entry, probe test [2, 4]: only the higher dose was significantly protective; learning (percent latency to escape) ([2]; 3 and 30 mg/kg/day from 36 hours after injury): improved learning; percent target entry, probe test ([2]; IP 11 days, dose series, FIG. 22A): dose-dependently preserved performance; percent quadrant time, probe test ([2]; IP 11 days, dose series, FIG. 23A): dose-dependently preserved performance; memory in probe test ([2]; IP from 24 hours after injury, 0.3 mg/kg/day): did not preserve memory; percent time in escape area, probe test ([2]; IP from 24 hours after injury, 1 mg/kg/day): partial, though not statistically significant, protection; percent time in escape area, probe test ([2]; IP from 24 hours after injury, 3, 10 and 30 mg/kg/day): protected; also recorded: complete protection; memory in probe test ([2]; IP from 36 hours after injury, 3 mg/kg/day): did not improve memory; percent time in escape area, probe test ([2]; IP from 36 hours after injury, 30 mg/kg/d): partially efficacious; percent time in escape area, probe test ([2]; IP from 48 hours after injury, any dose (3 or 30 mg/kg/d)): no protective efficacy; percent quadrant time, probe test [2, 5]: no protective efficacy; percent target entry, probe test [2, 5]: no protective efficacy; time in escape quadrant, probe test [2]: restored the time spent in the escape quadrant to normal levels

Question: How did the “neuroprotection by single enantiomers” value ([1]; 21 d, FIG. 3) turn out when `COc1cccc(NCC(F)Cn2c3ccc(Br)cc3c3cc(Br)ccc32)n1` (single isomer, unassigned; (-)) [(−)-P7C3-S243, (−)-N-(3-(3,6-dibromo-9H-carbazol-9-yl)-2-fluoropropyl)-6-methoxypyridin-2-amine] was run?
Answer: strongly protective

Question: And the “memory in probe test” value ([2]; oral from 24 hours after injury, 3, 10 and 30 mg/kg/day)?
Answer: preserved memory

Question: What about the “learning (percent latency to escape)” value ([2]; oral, 1 mg/kg/day) of the same molecule?
Answer: restored normal learning

Question: What about the “memory in probe test” value ([2]; oral, 1 mg/kg/day) of the same molecule?
Answer: did not preserve memory

Question: What about the “learning (percent latency to escape)” value ([2]; oral, 1, 3, 10 and 30 mg/kg/day) of the same molecule?
Answer: preserved of normal percent latency to escape

Question: And the “percent quadrant time, probe test” value ([2]; oral, 3, 10 and 30 mg/kg/day)?
Answer: potent preservation

Question: And the “percent target entry, probe test” value ([2]; oral, 3, 10 and 30 mg/kg/day)?
Answer: potent preservation

Question: What about the “percent quadrant time, probe test” value [2, 6] of the same molecule?
Answer: completely preserved normal performance

Question: What about the “percent target entry, probe test” value [2, 6] of the same molecule?
Answer: preserved normal performance

Question: What about the “learning (percent latency to escape)” value ([2]; single enantiomers, 3 mg/kg/day from 24 hours after injury) of the same molecule?
Answer: learned the task as well as sham-injury mice

Question: What about the “percent time in escape area, probe test” value ([2]; single enantiomers, IP from 24 hours after injury, 3 mg/kg/day) of the same molecule?
Answer: complete protection

Question: And the “percent time in escape area, probe test” value ([2]; single enantiomers, IP from 24 hours after injury, 3 mg/kg/day, listed as A, 3 mg/kg/day)?
Answer: protective

Question: What about the “time in escape quadrant, probe test” value [2] of the same molecule?
Answer: nonsignificant trend

Question: How did the “rescue of TH+ neurons” value ([1]; 21 d) turn out when `COc1cccc(NCC(F)Cn2c3ccc(Br)cc3c3cc(Br)ccc32)c1` (stereo not shown) [P7C3-A20, N-(3-(3,6-dibromo-9H-carbazol-9-yl)-2-fluoropropyl)-3-methoxyaniline] was run?
Answer: around 75%

Question: And the “dose showing significant neuroprotective activity” value [1]?
Answer: 5 mg/kg/day

Question: And the “time in escape quadrant, probe test” value [2]?
Answer: restored the time spent in the escape quadrant to normal levels
